Read-outs that look alike come from different tables or passages of the source.
What was measured:
Format in all cases: cell-based
[1] = tested on: TNFα-FL/Gaussia Luciferase; experiment: Dox Induced TNFα-FL-Gluc Assay
Method in brief: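 Compounds were added in doxycycline-containing DMSO/media to cells plated the previous day and incubated at 37° C under 5% CO2. These cells stably express a TNFα-FL/Gaussia luciferase cDNA whose expression is under T-REx (Dox-inducible) control, selected with Hygromycin and Blasticidin.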

[2] = tested on: human multiple myeloma cell line U266B1; experiment: U266 Cell Viability Assay; conditions: U-266, 48 hr, U266B1 cells, Celltiter-Glo, read-out: 48 hr U266 Viability Celltiter-Glo: Mean EC50
Method in brief: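 Viability measured by CellTiter-Glo luciferase signal after 48 h compound exposure (37 °C, 5% CO2) of U266B1 cells in 384-well format. Where stereochemistry is not shown, data refer to the stereoisomer mixture.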

[3] = tested on: HER3-ss+4aa/Gaussia Luciferase; experiment: Dox-Induced Her3-ss-Gluc Assay
Method in brief: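 Compounds, diluted in DMSO/media containing doxycycline, were incubated at 37° C., 5% CO2 with cells seeded one day earlier. The cells stably express HER3-ss+4aa/Gaussia luciferase under T-REx control. Where no stereochemistry is shown, data refer to the mixture of stereoisomers.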

[4] = tested on: PD1-ss+10aa/Gaussia Luciferase; experiment: Dox-Induced PD1-ss-Gluc Assay
Method in brief: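 Compounds, diluted in DMSO/media with doxycycline, were added to cells plated a day earlier and kept at 37° C under 5% CO2. The cells stably express a Gaussia luciferase construct fused to PD1-ss+10aa, induced via the T-REx system. Unassigned stereochemistry means mixture data.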

[5] = tested on: IL-2-FL/Gaussia Luciferase; experiment: Dox Induced IL2-FL-Gluc Assay
Method in brief: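 Compounds were added together with doxycycline in DMSO/media and incubated at 37° C., 5% CO2. The cells were a stably selected line carrying IL-2-FL/Gaussia luciferase under T-REx inducible control. Structures drawn without stereochemistry were tested as stereoisomer mixtures.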

[6] = tested on: human multiple myeloma cell line NCI-H929; experiment: H929 Cell Viability Assay; conditions: 48 hr, NCI-H929 cells, Celltiter-Glo, read-out: 48 hr H929 Viability Celltiter-Glo: Mean EC50
Method: Plates were incubated at 37° C., 5% CO2 for 48 hours. After 48 hours, Celltiter-Glo® (Promega) was added to each well and luciferase signal was quantified using Tecan Infinite M1000 Pro for cell viability determination.
For chemical structures that include one or more stereoisomers, but are illustrated without indicating stereochemistry, the assay data refers to a mixture of stereoisomers.

[7] = 24 hr doxycycline induction, 293FRT/TO cells, Gaussia luciferase signal; read-out: 24 hr Dox Inducible TNFaFLGluc 293FRT/TO: Mean IC50
[8] = 24 hr doxycycline induction, 293FRT/TO cells, Gaussia luciferase signal; read-out: 24 hr Dox Inducible Her3(ss + 4)Gluc 293FRT/TO: Mean IC50
[9] = 24 hr doxycycline induction, 293FRT/TO cells, Gaussia luciferase signal; read-out: 24 hr Dox Inducible PD1ssGluc 293FRT/TO: Mean IC50
[10] = 24 hr doxycycline induction, 293FRT/TO cells, Gaussia luciferase signal; read-out: 24 hr Dox Inducible IL2FLGIuc 293FRT/TO: Mean IC50
[11] = 24 hr, doxycycline-induced, 293FRT/TO cells; read-out: 24 hr Dox Inducible TNFaFLGluc 293FRT/TO: Mean IC50
[12] = 24 hr, doxycycline-induced, 293FRT/TO cells; read-out: 24 hr Dox Inducible Her3(ss + 4)Gluc 293FRT/TO: Mean IC50
[13] = 24 hr, doxycycline-induced, 293FRT/TO cells; read-out: 24 hr Dox Inducible PD1ssGluc 293FRT/TO: Mean IC50
[14] = 24 hr, doxycycline-induced, 293FRT/TO cells; read-out: 24 hr Dox Inducible IL2FLGIuc 293FRT/TO: Mean IC50

Compound	EC50 [2] [µM]	EC50 [6] [µM]	IC50 [1, 7] [µM]	IC50 [3, 8] [µM]	IC50 [4, 9] [µM]	IC50 [5, 10] [µM]	IC50 [1, 11] [µM]	IC50 [3, 12] [µM]	IC50 [4, 13] [µM]	IC50 [5, 14] [µM]	IC50 ([1]; read-out: 24 hr Dox Inducible TNFaFLGluc 293FRT/TO: Mean IC50; 24 hr, doxycycline-induced, 293FRT/TO cells) [µM]	IC50 ([3]; read-out: 24 hr Dox Inducible Her3(ss + 4)Gluc 293FRT/TO: Mean IC50; 24 hr, doxycycline-induced, 293FRT/TO cells) [µM]	IC50 ([4]; read-out: 24 hr Dox Inducible PD1ssGluc 293FRT/TO: Mean IC50; 24 hr, doxycycline-induced, 293FRT/TO cells) [µM]	IC50 ([5]; read-out: 24 hr Dox Inducible IL2FLGIuc 293FRT/TO: Mean IC50; 24 hr, doxycycline-induced, 293FRT/TO cells) [µM]
CC(C)(C)[Si](O[C@H]1CCN(c2ccccc2)[C@@H]1c1csc(NC(=O)c2cccn2Cc2ccncc2)n1)(c1ccccc1)c1ccccc1 [Compound A353]	> 25	0.303									0.013	0.012	0.005	0.011
CN(C)C(=O)c1ccc(/C=C/c2csc(NC(=O)c3cccn3Cc3ccncc3)n2)cc1 [Compound A246]	10.3	14	> 25	21.9	0.526	> 25								
O=C(Nc1nc2c(s1)COCC2)c1cccn1Cc1ccncc1 [Compound A95]	> 25	> 25	> 25	> 25	14.7	> 25								
CCc1nc(NC(=O)c2cccn2Cc2ccccc2)sc1C [Compound B9, 1-benzyl-N-(4-ethyl-5-methylthiazol-2-yl)-1H-pyrrole-2-carboxamide]	> 25	> 25					> 25	> 25	9.43	> 25				
CO[C@H]1C[C@H](c2csc(NC(=O)c3cccn3Cc3ccncc3)n2)N(c2ccccc2)C1 [Compound A333]	> 25	1.48					0.165	0.042	0.021	0.027				
CC(C)OC(C)(C)c1csc(NC(=O)c2ccn(Cc3ccncc3)n2)n1 [Compound A100, N-(4-(2-isopropoxypropan-2-yl)thiazol-2-yl)-1-(pyridin-4-ylmethyl)-1H-pyrazole-3-carboxamide]	> 25	24.6	> 25	> 25	24.6	> 25								
O=C(Nc1nc(/C=C/c2ccc(C(F)(F)F)cn2)cs1)c1cccn1Cc1ccncc1 [Compound A343]	15.9	7.18					3.62	0.492	0.017	1.15				
O=C(Nc1nc(C2[C@@H](O)CCN2c2ccccc2)cs1)c1cccn1Cc1ccncc1 (stereo partly drawn) [Compound A344]	> 25	> 25					8.86	2.03	0.971	1.35				
CC(C)OC(C)(C)c1csc(NC(=O)c2ccccc2N2CCOCC2)n1 [Compound A340]	> 25	> 25					> 25	> 25	> 25	> 25				
O=C(Nc1nc(N2CCC(c3ccccc3)C2)cs1)c1cccn1Cc1ccncc1 (stereo not drawn) [Compound A273]	> 25	> 25	> 25	> 25	> 25	> 25								
CC(=O)Nc1ccc(Cn2cccc2C(=O)Nc2nc(C(C)(C)OC(C)C)cs2)cc1 [Compound A114, 1-(4-acetamidobenzyl)-N-(4-(2-isopropoxypropan-2-yl)thiazol-2-yl)-1H-pyrrole-2-carboxamide]	> 25	> 25	> 25	> 25	> 25	> 25								

Continued, in another order:

EC50 [2] [µM]	EC50 [6] [µM]	IC50 [1, 7] [µM]	IC50 [3, 8] [µM]	IC50 [4, 9] [µM]	IC50 [5, 10] [µM]	IC50 [1, 11] [µM]	IC50 [3, 12] [µM]	IC50 [4, 13] [µM]	IC50 [5, 14] [µM]	Compound	IC50 ([1]; read-out: 24 hr Dox Inducible TNFaFLGluc 293FRT/TO: Mean IC50; 24 hr, doxycycline-induced, 293FRT/TO cells) [µM]	IC50 ([3]; read-out: 24 hr Dox Inducible Her3(ss + 4)Gluc 293FRT/TO: Mean IC50; 24 hr, doxycycline-induced, 293FRT/TO cells) [µM]	IC50 ([4]; read-out: 24 hr Dox Inducible PD1ssGluc 293FRT/TO: Mean IC50; 24 hr, doxycycline-induced, 293FRT/TO cells) [µM]	IC50 ([5]; read-out: 24 hr Dox Inducible IL2FLGIuc 293FRT/TO: Mean IC50; 24 hr, doxycycline-induced, 293FRT/TO cells) [µM]
> 25	> 25	> 25	> 25	5.37	4.52					Cc1cc(Cn2cccc2C(=O)Nc2nc(C(C)(C)OC(C)C)cs2)ccn1 [Compound A83, N-(4-(2-isopropoxypropan-2-yl)thiazol-2-yl)-1-((2-methylpyridin-4-yl)methyl)-1H-pyrrole-2-carboxamide]				
> 25	> 25	> 25	> 25	> 25	> 25					CC(=O)N1CCC(Cn2cccc2C(=O)Nc2nc(C(C)(C)OC(C)C)cs2)CC1 [Compound A128, 1-((1-acetylpiperidin-4-yl)methyl)-N-(4-(2-isopropoxypropan-2-yl)thiazol-2-yl)-1H-pyrrole-2-carboxamide]				
> 25	10.9	4.61	0.974	0.478	0.95					CC(C)(COc1ccccn1)c1csc(NC(=O)c2cccn2Cc2ccncc2)n1 [Compound A260]				
> 25	11.2					1.79	0.495	0.184	0.489	O=C(Nc1nc(C2CCCN(c3ccccc3)C2)cs1)c1cccn1Cc1ccncc1 (stereo not drawn) [Compound A306, N-(4-(1-phenylpiperidin-3-yl)thiazol-2-yl)-1-(pyridin-4-ylmethyl)-1H-pyrrole-2-carboxamide]				
13.7	8.6	0.946	0.234	0.048	0.443					O=C(Nc1nc(/C=C/c2ccc(C(F)(F)F)cc2)cs1)c1cccn1Cc1ccncc1 [Compound A219, 1-(pyridin-4-ylmethyl)-N-(4-(4-(trifluoromethyl)styryl)thiazol-2-yl)-1H-pyrrole-2-carboxamide]				
> 25	14.8	2.36	0.199	0.178	0.136					CC(C)OC(C)(C)c1csc(NC(=O)c2cccn2CCCc2ccncc2F)n1 [Compound A243, 1-(3-(3-fluoropyridin-4-yl)propyl)-N-(4-(2-isopropoxypropan-2-yl)thiazol-2-yl)-1H-pyrrole-2-carboxamide]				
> 25	> 25					> 25	> 25	10.4	> 25	O=C(Nc1nc([C@@H]2CCC(=O)N2Cc2ccccc2)cs1)c1cccn1Cc1ccncc1 [Compound A320]				
> 25	> 25					10.3	1.21	0.655	1.15	O=C(Nc1nc(C2COc3ccccc3C2)cs1)c1cccn1Cc1ccncc1 (stereo not drawn) [Compound A296]				
10.6	5.75	3.58	0.541	0.211	1.17					O=C(Nc1nc(CCc2cccc(Cl)c2)cs1)c1cccn1Cc1ccncc1 [Compound A179]				
> 25	20.8	2.23	0.56	0.191	0.804					O=C(Nc1nc(Cc2ccccc2)cs1)c1cccn1Cc1ccncc1 [Compound A17, N-(4-benzylthiazol-2-yl)-1-(pyridin-4-ylmethyl)-1H-pyrrole-2-carboxamide]				
> 25	6.04					0.817	0.097	0.049	0.184	O=C(Nc1nc([C@@H]2CCCN2c2ccccc2)cs1)c1cccn1Cc1ccncc1Cl [Compound A318]				
> 25	> 25	16.6	11.9	1.51	3.62					CC(C)OCc1csc(NC(=O)c2cccn2Cc2ccncc2)n1 [Compound A59, N-(4-(isopropoxymethyl)thiazol-2-yl)-1-(pyridin-4-ylmethyl)-1H-pyrrole-2-carboxamide]				
> 25	> 25	> 25	> 25	4.66	> 25					COc1cnc(NC(=O)c2cccn2Cc2ccncc2)s1 [Compound A82]				

Reference: patent US20220153732A1, “PROTEIN SECRETION INHIBITORS” (KEZAR LIFE SCIENCES, priority 2019, published 2022)
